ChEMBL document CHEMBL3627608, “Crystal structures of human RIP2 kinase catalytic domain complexed with ATP-competitive inhibitors: Foundations for understanding inhibitor selectivity” (Bioorg Med Chem, 2015)

Columns and labels:
[1] = molecular target: Ribosomal protein S6 kinase alpha-4 (Homo sapiens) (UniProt O75676); experiment: Inhibition of MSK2 (unknown origin) at 10 uM after 120 mins P33 radiolabeled kinase activity assay
[2] = molecular target: Protein kinase C gamma type (Homo sapiens) (UniProt P05129); experiment: Inhibition of PKCgamma (unknown origin) at 10 uM after 120 mins P33 radiolabeled kinase activity assay
[3] = molecular target: MAP/microtubule affinity-regulating kinase 3 (Homo sapiens) (UniProt P27448); experiment: Inhibition of MARK3 (unknown origin) at 10 uM after 120 mins P33 radiolabeled kinase activity assay
[4] = molecular target: T1, Mitogen-activated protein kinase kinase kinase 6 (Homo sapiens) (UniProt O95382); experiment: Inhibition of MEKK6 (unknown origin) at 10 uM after 120 mins P33 radiolabeled kinase activity assay
T1 sequence (whole entry): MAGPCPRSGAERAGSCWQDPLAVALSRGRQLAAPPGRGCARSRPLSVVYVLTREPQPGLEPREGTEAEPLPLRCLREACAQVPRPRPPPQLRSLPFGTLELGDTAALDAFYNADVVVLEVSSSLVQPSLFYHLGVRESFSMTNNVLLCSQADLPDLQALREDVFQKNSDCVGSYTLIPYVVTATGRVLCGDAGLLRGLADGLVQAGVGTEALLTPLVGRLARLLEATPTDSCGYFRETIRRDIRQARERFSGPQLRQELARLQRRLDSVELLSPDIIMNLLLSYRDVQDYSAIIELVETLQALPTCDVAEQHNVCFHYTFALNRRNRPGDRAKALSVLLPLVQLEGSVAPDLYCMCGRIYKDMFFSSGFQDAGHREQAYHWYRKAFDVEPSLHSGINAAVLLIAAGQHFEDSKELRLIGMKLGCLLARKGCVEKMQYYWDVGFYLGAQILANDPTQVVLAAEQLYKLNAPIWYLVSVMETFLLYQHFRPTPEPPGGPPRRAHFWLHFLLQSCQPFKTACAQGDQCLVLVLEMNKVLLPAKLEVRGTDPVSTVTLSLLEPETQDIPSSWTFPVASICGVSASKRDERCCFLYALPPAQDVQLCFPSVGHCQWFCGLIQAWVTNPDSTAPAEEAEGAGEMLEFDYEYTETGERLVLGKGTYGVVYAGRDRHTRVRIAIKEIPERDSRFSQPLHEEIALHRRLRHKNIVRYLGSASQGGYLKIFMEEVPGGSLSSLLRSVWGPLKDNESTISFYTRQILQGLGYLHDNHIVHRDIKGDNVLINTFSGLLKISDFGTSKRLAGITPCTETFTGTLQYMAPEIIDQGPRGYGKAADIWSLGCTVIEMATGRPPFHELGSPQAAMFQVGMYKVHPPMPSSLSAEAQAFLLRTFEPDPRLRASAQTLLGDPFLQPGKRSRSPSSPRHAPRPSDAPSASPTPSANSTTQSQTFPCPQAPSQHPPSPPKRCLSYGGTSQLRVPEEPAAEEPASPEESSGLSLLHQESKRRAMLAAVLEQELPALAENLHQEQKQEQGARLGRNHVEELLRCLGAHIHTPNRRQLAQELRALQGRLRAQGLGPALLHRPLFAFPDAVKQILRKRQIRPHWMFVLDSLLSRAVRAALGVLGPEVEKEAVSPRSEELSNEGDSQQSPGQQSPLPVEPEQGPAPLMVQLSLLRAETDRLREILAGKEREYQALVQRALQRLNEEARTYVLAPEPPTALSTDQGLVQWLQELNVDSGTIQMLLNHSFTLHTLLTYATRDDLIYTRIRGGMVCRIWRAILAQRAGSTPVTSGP

[5] = molecular target: T2, Serine/threonine-protein kinase Sgk3 (Homo sapiens) (UniProt Q96BR1); experiment: Inhibition of SGK3 (unknown origin) at 10 uM after 120 mins P33 radiolabeled kinase activity assay
T2 sequence (whole entry): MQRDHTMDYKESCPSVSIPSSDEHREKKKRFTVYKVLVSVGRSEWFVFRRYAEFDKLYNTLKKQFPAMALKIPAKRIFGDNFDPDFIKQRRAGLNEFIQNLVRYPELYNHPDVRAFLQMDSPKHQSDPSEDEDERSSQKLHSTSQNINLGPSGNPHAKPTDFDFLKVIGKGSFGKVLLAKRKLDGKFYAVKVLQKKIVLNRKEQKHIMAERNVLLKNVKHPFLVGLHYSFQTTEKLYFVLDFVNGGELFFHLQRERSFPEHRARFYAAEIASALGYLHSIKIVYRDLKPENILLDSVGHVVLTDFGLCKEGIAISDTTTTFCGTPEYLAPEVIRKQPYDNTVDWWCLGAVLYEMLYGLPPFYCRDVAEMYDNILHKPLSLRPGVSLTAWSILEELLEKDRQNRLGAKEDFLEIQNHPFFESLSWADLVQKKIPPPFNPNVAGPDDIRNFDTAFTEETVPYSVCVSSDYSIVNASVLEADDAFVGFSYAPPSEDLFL

[6] = molecular target: MAP kinase-interacting serine/threonine-protein kinase 2 (Homo sapiens) (UniProt Q9HBH9); experiment: Inhibition of MNK2 (unknown origin) at 10 uM after 120 mins P33 radiolabeled kinase activity assay
[7] = molecular target: Activated CDC42 kinase 1 (Homo sapiens) (UniProt Q07912); experiment: Inhibition of ACK1 (unknown origin) at 10 uM after 120 mins P33 radiolabeled kinase activity assay
[8] = molecular target: T3, Testis-specific serine/threonine-protein kinase 2 (Homo sapiens) (UniProt Q96PF2); experiment: Inhibition of TSSK2 (unknown origin) at 10 uM after 120 mins P33 radiolabeled kinase activity assay
T3 sequence (whole entry): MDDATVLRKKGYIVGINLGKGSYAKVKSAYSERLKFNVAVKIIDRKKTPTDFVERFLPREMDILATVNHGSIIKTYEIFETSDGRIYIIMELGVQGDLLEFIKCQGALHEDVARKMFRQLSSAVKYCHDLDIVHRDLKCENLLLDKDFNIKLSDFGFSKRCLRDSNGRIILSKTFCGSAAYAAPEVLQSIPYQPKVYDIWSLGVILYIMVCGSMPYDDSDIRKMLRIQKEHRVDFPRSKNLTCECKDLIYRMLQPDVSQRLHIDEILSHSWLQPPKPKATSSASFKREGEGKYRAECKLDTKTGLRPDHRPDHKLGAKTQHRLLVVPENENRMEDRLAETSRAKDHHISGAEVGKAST

[9] = molecular target: Tyrosine-protein kinase Lck (Homo sapiens) (UniProt P06239); experiment: Inhibition of LCK (unknown origin) at 10 uM after 120 mins P33 radiolabeled kinase activity assay
[10] = molecular target: Tyrosine-protein kinase Lyn (Homo sapiens) (UniProt P07948); experiment: Inhibition of LYN (unknown origin) at 10 uM after 120 mins P33 radiolabeled kinase activity assay
Chain of Tyrosine-protein kinase Lyn (Homo sapiens) (P07948 2-512 limits assumed): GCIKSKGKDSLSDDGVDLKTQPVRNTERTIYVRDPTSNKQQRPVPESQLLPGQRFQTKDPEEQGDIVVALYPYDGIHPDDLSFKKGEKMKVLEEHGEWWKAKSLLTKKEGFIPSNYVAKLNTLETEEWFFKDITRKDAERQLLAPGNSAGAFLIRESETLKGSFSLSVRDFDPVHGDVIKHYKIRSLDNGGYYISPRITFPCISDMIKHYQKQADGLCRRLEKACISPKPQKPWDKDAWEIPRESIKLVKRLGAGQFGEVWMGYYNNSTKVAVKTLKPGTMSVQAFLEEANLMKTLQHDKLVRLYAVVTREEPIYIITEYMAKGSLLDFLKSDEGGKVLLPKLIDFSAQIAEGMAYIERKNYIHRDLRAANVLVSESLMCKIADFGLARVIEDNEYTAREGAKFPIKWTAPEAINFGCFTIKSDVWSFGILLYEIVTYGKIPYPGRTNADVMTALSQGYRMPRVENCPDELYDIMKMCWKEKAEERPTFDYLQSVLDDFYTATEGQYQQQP

Chain of Ribosomal protein S6 kinase alpha-4 (Homo sapiens) (O75676 whole entry, looked up): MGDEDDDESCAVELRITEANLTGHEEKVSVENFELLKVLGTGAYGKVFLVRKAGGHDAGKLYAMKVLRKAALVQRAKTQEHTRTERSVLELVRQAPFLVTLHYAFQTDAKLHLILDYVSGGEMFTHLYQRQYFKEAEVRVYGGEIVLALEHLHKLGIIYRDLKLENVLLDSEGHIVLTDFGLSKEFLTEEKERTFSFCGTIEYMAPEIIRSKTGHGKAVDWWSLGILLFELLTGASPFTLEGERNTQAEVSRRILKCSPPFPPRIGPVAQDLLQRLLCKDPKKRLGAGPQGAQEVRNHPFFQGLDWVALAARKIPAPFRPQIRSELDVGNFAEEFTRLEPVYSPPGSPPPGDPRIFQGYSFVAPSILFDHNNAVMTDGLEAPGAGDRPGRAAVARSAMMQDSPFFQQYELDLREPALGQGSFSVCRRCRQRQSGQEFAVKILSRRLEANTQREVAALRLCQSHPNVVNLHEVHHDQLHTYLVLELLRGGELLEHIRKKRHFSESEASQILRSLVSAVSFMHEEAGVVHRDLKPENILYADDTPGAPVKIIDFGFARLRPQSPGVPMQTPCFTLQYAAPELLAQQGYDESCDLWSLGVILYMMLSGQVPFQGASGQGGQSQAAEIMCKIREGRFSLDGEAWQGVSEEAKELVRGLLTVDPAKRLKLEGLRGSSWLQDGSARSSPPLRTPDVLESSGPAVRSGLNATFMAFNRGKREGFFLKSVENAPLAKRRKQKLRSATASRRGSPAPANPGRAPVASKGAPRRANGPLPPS
Chain of Activated CDC42 kinase 1 (Homo sapiens) (Q07912 whole entry, looked up): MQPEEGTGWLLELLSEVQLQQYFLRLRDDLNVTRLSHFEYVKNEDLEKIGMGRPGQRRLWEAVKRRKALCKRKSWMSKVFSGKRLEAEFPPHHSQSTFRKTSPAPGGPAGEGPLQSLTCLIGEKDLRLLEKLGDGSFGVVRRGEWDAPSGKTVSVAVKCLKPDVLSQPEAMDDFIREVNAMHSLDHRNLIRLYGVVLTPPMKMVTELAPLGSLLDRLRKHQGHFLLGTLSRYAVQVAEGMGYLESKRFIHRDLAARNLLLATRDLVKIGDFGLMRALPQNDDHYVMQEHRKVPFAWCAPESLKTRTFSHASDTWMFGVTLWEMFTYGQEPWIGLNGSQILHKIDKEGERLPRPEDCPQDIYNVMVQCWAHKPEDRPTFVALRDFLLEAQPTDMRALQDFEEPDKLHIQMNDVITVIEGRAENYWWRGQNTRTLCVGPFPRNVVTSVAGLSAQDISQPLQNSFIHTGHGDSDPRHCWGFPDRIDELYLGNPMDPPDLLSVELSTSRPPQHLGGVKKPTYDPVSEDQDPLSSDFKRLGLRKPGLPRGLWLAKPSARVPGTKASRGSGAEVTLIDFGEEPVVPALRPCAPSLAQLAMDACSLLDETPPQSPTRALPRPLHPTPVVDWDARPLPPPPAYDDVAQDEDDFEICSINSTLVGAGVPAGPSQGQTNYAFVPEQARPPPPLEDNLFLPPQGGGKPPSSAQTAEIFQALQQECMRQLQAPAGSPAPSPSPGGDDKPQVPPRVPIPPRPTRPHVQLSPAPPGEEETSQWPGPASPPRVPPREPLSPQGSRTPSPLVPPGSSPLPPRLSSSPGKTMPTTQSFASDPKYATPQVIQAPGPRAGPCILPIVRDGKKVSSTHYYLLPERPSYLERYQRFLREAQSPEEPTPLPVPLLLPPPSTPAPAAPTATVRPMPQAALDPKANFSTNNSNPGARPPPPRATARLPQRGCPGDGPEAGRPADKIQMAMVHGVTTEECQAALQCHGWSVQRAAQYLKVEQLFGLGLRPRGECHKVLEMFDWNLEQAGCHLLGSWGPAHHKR
Chain of MAP kinase-interacting serine/threonine-protein kinase 2 (Homo sapiens) (Q9HBH9 whole entry, looked up): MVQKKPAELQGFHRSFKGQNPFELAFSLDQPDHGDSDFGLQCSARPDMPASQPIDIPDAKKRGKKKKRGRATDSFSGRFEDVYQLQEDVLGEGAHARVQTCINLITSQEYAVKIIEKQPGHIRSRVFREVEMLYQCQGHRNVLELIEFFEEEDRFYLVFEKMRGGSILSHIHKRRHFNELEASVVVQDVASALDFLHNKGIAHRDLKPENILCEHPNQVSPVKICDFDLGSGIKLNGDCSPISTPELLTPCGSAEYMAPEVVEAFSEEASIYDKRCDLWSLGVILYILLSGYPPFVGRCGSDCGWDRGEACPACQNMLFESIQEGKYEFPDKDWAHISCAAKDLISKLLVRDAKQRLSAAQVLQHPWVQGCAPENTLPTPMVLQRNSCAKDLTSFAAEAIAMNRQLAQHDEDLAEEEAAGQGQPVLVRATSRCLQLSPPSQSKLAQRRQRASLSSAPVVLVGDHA
Chain of MAP/microtubule affinity-regulating kinase 3 (Homo sapiens) (P27448 whole entry, looked up): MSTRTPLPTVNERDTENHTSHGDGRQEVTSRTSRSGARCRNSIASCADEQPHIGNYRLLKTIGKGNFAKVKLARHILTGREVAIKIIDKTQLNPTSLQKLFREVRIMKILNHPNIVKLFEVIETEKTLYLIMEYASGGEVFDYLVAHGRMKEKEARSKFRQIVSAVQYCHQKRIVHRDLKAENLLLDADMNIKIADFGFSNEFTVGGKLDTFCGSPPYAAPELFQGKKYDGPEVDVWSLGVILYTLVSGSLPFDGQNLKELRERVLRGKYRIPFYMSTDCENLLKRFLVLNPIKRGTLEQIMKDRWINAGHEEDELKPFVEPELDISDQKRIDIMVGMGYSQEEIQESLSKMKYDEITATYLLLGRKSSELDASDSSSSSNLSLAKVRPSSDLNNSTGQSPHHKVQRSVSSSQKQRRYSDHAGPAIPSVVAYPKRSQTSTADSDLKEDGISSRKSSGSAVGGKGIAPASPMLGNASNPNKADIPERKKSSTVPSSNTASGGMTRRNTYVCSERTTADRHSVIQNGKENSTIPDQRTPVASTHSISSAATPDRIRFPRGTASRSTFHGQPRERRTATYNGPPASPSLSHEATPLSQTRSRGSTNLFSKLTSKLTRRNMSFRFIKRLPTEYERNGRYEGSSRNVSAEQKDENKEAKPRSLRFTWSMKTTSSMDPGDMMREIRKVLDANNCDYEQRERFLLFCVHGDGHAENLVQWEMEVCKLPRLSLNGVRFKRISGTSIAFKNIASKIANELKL
Chain of Tyrosine-protein kinase Lck (Homo sapiens) (P06239 2-509 limits assumed): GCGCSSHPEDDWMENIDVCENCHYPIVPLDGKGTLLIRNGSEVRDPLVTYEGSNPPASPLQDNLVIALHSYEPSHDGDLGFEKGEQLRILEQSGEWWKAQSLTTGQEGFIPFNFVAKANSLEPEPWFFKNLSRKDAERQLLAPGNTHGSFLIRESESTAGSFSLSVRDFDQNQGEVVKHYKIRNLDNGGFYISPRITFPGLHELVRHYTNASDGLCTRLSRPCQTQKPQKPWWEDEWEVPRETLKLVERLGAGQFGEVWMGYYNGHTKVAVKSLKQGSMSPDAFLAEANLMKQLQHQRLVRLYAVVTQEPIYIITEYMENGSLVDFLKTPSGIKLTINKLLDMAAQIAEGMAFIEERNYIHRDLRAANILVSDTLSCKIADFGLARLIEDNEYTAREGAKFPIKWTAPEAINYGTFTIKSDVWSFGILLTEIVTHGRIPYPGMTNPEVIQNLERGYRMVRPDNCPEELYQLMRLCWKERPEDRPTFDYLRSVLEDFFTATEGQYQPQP

inhibition [1] [%]	inhibition [2] [%]	inhibition [3] [%]	inhibition [4] [%]	inhibition [5] [%]	inhibition [6] [%]	inhibition [7] [%]	inhibition [8] [%]	inhibition [9] [%]	inhibition [10] [%]	SMILES
19.5	10.9	4.8	-4.09	3.98	81.5	96.5	1.83	99.9	100	CS(=O)(=O)c1cccc(Nc2nccc(-c3sc(N4CCOCC4)nc3-c3cccc(NS(=O)(=O)c4c(F)cccc4F)c3)n2)c1
4.4	4.86	-3.77	-0.42	5.07	2.19	16.4	3.82	52.8	61.6	COCCNC(=O)c1ccc2c(c1)nc(-c1cnc(-c3ccc(Cl)cc3)[nH]1)n2CCOC
70.5	2.25	-1.36	4.35	10	99.2	21.6	1.87	95.3	98.2	CC(C)(C)c1cc(NC(=O)Nc2ccc(Oc3ccncc3)cc2)no1
